Measured values taken from patent US20120095063A1, “METHODS AND COMPOSITIONS FOR TREATMENT OF ISCHEMIC CONDITIONS AND CONDITIONS RELATED TO MITOCHONDRIAL FUNCTION” (priority 2009, published 2012).

Legend:
[1] = system: myocardial ischemia-reperfusion (IR) injury; assay: Infarct size in rat model of myocardial ischemia-reperfusion (IR) injury; type: in vivo; details: 45 min ischemia, Epi 0.5 mg/kg and/or Nico 33 f× g/kg IV, repeated low dose, infarct size 48 h after IR
Method: The general methods for the implementation of the rat myocardial IR model are detailed elsewhere. The total time of myocardial ischemia was 45 min Dx-EPI (3 mg/kg) was mixed in saline solution and given IV via the jugular vein. Control animals received dextran saline solution injections. Infarct size was examined 48 h after IR using established procedures.
The general methods for the implementation of the rat myocardial IR model are described herein. The total time of myocardial ischemia was 45 min Treatment was administered a total of 1, 2 or 3 times. The initial dose was given15 min prior to reperfusion and then at 12 (in the case of 2× and 3× dosing) and again at 24 h (in the case of 3× dosing) after reperfusion. Epi (0.5 mg/kg) and/or Nico (33 f× g/kg) were mixed in water and given IV using the jugular vein. Control animals only received water injections. Infarct size was examined 48 h after IR using established procedures.

[2] = system: human skeletal muscle myocytes (HSKM cells); assay: Oxygen consumption rate in primary human skeletal muscle myocytes; type: cell-based; details: 48 hours, 300 nM FCCP
Method: Measured endogenous rates of respiration reflect the net balance between rates of energy utilization, energy production, and mitochondrial uncoupling. This was followed by induction of resting (State 4o) respiration with the addition of 1 uM oligomycin to inhibit ATP synthase. State 4 respiration is primarily determined by the rate of proton leak across the inner mitochondrial membrane. Maximal respiration was then assessed by the addition of 300 nM FCCP, a chemical uncoupler of oxidative phosphorylation. In intact cells, this rate reflects the maximal rates of substrate oxidation and electron transport chain activity. An increase in maximal rates can reflect changes in the regulation or expression level of oxidative enzymes, electron transport chain components, or total mitochondrial mass. […] As a control, nonmitochondrial O2 consumption was measured after the addition of 100 nM rotenone and 100 nM myxothiazol to completely block the respiratory chain.
Respiration of the intact cells was measured in unbuffered DMEM containing 10 mM glucose, 10 mM pyruvate, and 2 mM glutamine. In panel A, endogenous respiration was measured on HSKM cells, followed by state 4 (resting) respiration with the addition of 1 uM oligomycin (indicated as ‘A’), and then maximal rates were measured after the addition of 300 nM FCCP, a chemical uncoupler (indicated as ‘B’). […]

[3] = system: electron transport chain proteins; assay: Western blot of mitochondrial electron transport chain proteins in C2C12 cells; type: cell-based, mouse; details: 1 μM, 48 hours
From the text: Western blots of cell lysates were used to assess levels of mitochondrial to determine if improved respiration is due to enhanced mitochondrial biogenesis.

[4] = system: mitochondrial swelling (damage) induced by high calcium; assay: Calcium-induced mitochondrial swelling, EPI and NICO co-treatment, isobolographic analysis; type: biochemical; details: rat left ventricle mitochondria; 33 μM CaCl2; 535 nm, 30 min
Method: To determine the effect that (-)-epicatechin (EPI) and nicorandil (NICO) co-treatment has on mitochondrial swelling (damage) induced by high calcium, EPI or NICO, and EPI+NICO protective effects against calcium induced mitochondrial damage (swelling), were evaluated by monitoring changes in optical density (OD, light absorbance): Hearts from male rats were excised and weighed. Left ventricles were homogenized (0.1 g/mL) in solution A (Sucrose 2M, EDTA 0.01M, Hepes 0.5M: pH=7.4), centrifuged 10 min (800×g), 4° C., the supernatant was centrifuged 10 min (8000×g), 4° C. and the pellet was re-suspended in solution B (Sucrose 2M, EDTA 0.01M, Tris 0.5M-H2PO4-50 mM: pH=7.4) and centrifuged 10 min (10000×g), 4° C. Pellet was re-suspended in 10 mL of solution C (Sucrose 2M, EDTA 0.01M, Tris 0.5M-H2PO4-50 mM, Succinate 1M: pH=7.4. 33 μM of CaCl2 was then, added in order to induce mitochondrial […] (swelling measured through absorbace changes at 535 nm, monitored continuosly during 30 min Dose-response effects on mitochondrial swelling to EPI and NICO treatment were pursued.

Row | Compound | reduction of infarct size vs. controls [1] | stimulating mitochondrial function (maximal, uncoupler-stimulated respiration) [2] | expression level of the 20 kDa subunit of complex I [3] | effect on calcium-induced mitochondrial damage (swelling) [4]
1 | Oc1cc(O)c2c(c1)O[C@H](c1ccc(O)c(O)c1)[C@H](O)C2 [Epicatechin, (−)-epicatechin] | 27% | – | – | –
2 | catechin | – | active | clearly increased | –
3 | O=C(NCCO[N+](=O)[O-])c1cccnc1 [nicorandil, N-[2-(Nitroxy)ethyl]-3-pyridinecarboxamide] | 37% | active | – | can limit
